Assays:
Assay in all cases: relative viability (nuclei count vs DMSO), 5 days (fraction); higher = more cells survive
EPLC-272H = system: EPLC-272H
Outline: (§1)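 Medians of duplicate plates are given as relative viability. That measure is the nuclei count in treated wells divided by the count in vehicle wells. Counts were taken on 4× images of lung cancer cell lines in 1536-well plates, 5 days after pin-tool dosing the day after seeding with one drug alone or a fixed anchor-drug dose plus five library-drug doses (not always all listed) in √10 steps.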

NCI-H358 = system: NCI-H358
Outline: as §1

HCC-827 = system: HCC-827
Outline: as §1

LU99A = system: LU99A
Outline: as §1

NCI-H2087 = system: NCI-H2087
Outline: as §1

NCI-H2085 = system: NCI-H2085
Outline: as §1

NCI-H1395 = system: NCI-H1395
Outline: as §1

NCI-H1437 = system: NCI-H1437
Outline: as §1

NCI-H1666 = system: NCI-H1666
Outline: as §1

H3255 = system: H3255
Outline: as §1

HOP-62 = system: HOP-62
Outline: as §1

HCC-44 = system: HCC-44
Outline: as §1

PC-3 [JPC-3] = system: PC-3 [JPC-3]
Outline: as §1

NCI-H2342 = system: NCI-H2342
Outline: as §1

NCI-H647 = system: NCI-H647
Outline: as §1

201T = system: 201T
Outline: as §1

COR-L 105 = system: COR-L 105
Outline: as §1

BEN = system: BEN
Outline: as §1

NCI-H1975 = system: NCI-H1975
Outline: as §1

LOU-NH91 = system: LOU-NH91
Outline: as §1

LCLC-97TM1 = system: LCLC-97TM1
Outline: as §1

EKVX = system: EKVX
Outline: as §1

SW 1573 = system: SW 1573
Outline: as §1

O=C(O)c1ccc(-c2c[nH]c3ncc(-c4ccccc4)cc23)cc1C1CCCC1 + O=C(c1cc(Cc2n[nH]c(=O)c3ccccc23)ccc1F)N1CCN(C(=O)C2CC2)CC1 [Olaparib] (partner 8 µM)
relative viability (EPLC-272H; first compound 0.04 µM): 0.924 | relative viability (EPLC-272H; first compound 0.1265 µM): 1.05 | relative viability (EPLC-272H; first compound 0.4 µM): 0.566 | relative viability (EPLC-272H; first compound 1.265 µM): 0.257 | relative viability (NCI-H358; first compound 0.04 µM): 0.603 | relative viability (NCI-H358; first compound 0.1265 µM): 0.657 | relative viability (NCI-H358; first compound 0.4 µM): 0.529 | relative viability (NCI-H358; first compound 1.265 µM): 0.275 | relative viability (HCC-827; first compound 0.04 µM): 0.559 | relative viability (HCC-827; first compound 0.1265 µM): 0.714 | relative viability (HCC-827; first compound 0.4 µM): 0.569 | relative viability (HCC-827; first compound 1.265 µM): 0.398 | relative viability (LU99A; first compound 0.04 µM): 0.255 | relative viability (LU99A; first compound 0.1265 µM): 0.302 | relative viability (LU99A; first compound 0.4 µM): 0.255 | relative viability (LU99A; first compound 1.265 µM): 0.25 | relative viability (NCI-H2087; first compound 0.04 µM): 0.686 | relative viability (NCI-H2087; first compound 0.1265 µM): 0.597 | relative viability (NCI-H2087; first compound 0.4 µM): 0.524 | relative viability (NCI-H2087; first compound 1.265 µM): 0.342 | relative viability (NCI-H2085; first compound 0.04 µM): 0.74 | relative viability (NCI-H2085; first compound 0.1265 µM): 0.793 | relative viability (NCI-H2085; first compound 0.4 µM): 0.746 | relative viability (NCI-H2085; first compound 1.265 µM): 0.474 | relative viability (NCI-H1395; first compound 0.04 µM): 0.473 | relative viability (NCI-H1395; first compound 0.1265 µM): 0.495 | relative viability (NCI-H1395; first compound 0.4 µM): 0.495 | relative viability (NCI-H1395; first compound 1.265 µM): 0.444 | relative viability (NCI-H1437; first compound 0.04 µM): 0.666 | relative viability (NCI-H1437; first compound 0.1265 µM): 0.633 | relative viability (NCI-H1437; first compound 0.4 µM): 0.556 | relative viability (NCI-H1437; first compound 1.265 µM): 0.279 | relative viability (NCI-H1666; first compound 0.04 µM): 0.781 | relative viability (NCI-H1666; first compound 0.1265 µM): 0.742 | relative viability (NCI-H1666; first compound 0.4 µM): 0.741 | relative viability (NCI-H1666; first compound 1.265 µM): 0.678 | relative viability (H3255; first compound 0.04 µM): 0.574 | relative viability (H3255; first compound 0.1265 µM): 0.57 | relative viability (H3255; first compound 0.4 µM): 0.514 | relative viability (H3255; first compound 1.265 µM): 0.507 | relative viability (HOP-62; first compound 0.04 µM): 0.352 | relative viability (HOP-62; first compound 0.1265 µM): 0.448 | relative viability (HOP-62; first compound 0.4 µM): 0.356 | relative viability (HOP-62; first compound 1.265 µM): 0.382 | relative viability (HCC-44; first compound 0.04 µM): 0.998 | relative viability (HCC-44; first compound 0.1265 µM): 0.975 | relative viability (HCC-44; first compound 0.4 µM): 0.975 | relative viability (HCC-44; first compound 1.265 µM): 0.95 | relative viability (PC-3 [JPC-3]; first compound 0.04 µM): 1.07 | relative viability (PC-3 [JPC-3]; first compound 0.1265 µM): 1.07 | relative viability (PC-3 [JPC-3]; first compound 0.4 µM): 1.15 | relative viability (PC-3 [JPC-3]; first compound 1.265 µM): 0.919 | relative viability (NCI-H2342; first compound 0.04 µM): 0.456 | relative viability (NCI-H2342; first compound 0.1265 µM): 0.445 | relative viability (NCI-H2342; first compound 0.4 µM): 0.501 | relative viability (NCI-H2342; first compound 1.265 µM): 0.446 | relative viability (NCI-H647; first compound 0.04 µM): 0.5 | relative viability (NCI-H647; first compound 0.1265 µM): 0.619 | relative viability (NCI-H647; first compound 0.4 µM): 0.494 | relative viability (NCI-H647; first compound 1.265 µM): 0.322 | relative viability (201T; first compound 0.04 µM): 0.837 | relative viability (201T; first compound 0.1265 µM): 0.866 | relative viability (201T; first compound 0.4 µM): 0.827 | relative viability (201T; first compound 1.265 µM): 0.775 | relative viability (COR-L 105; first compound 0.04 µM): 0.723 | relative viability (COR-L 105; first compound 0.1265 µM): 0.682 | relative viability (COR-L 105; first compound 0.4 µM): 0.75 | relative viability (COR-L 105; first compound 1.265 µM): 0.647 | relative viability (BEN; first compound 0.04 µM): 1.05 | relative viability (BEN; first compound 0.1265 µM): 1.06 | relative viability (BEN; first compound 0.4 µM): 1.09 | relative viability (BEN; first compound 1.265 µM): 0.944 | relative viability (NCI-H1975; first compound 0.04 µM): 0.724 | relative viability (NCI-H1975; first compound 0.1265 µM): 0.801 | relative viability (NCI-H1975; first compound 0.4 µM): 0.842 | relative viability (NCI-H1975; first compound 1.265 µM): 0.539 | relative viability (LOU-NH91; first compound 0.04 µM): 0.893 | relative viability (LOU-NH91; first compound 0.1265 µM): 0.979 | relative viability (LOU-NH91; first compound 0.4 µM): 0.908 | relative viability (LOU-NH91; first compound 1.265 µM): 0.754 | relative viability (LCLC-97TM1; first compound 0.04 µM): 0.435 | relative viability (LCLC-97TM1; first compound 0.1265 µM): 0.54 | relative viability (LCLC-97TM1; first compound 0.4 µM): 0.396 | relative viability (LCLC-97TM1; first compound 1.265 µM): 0.258 | relative viability (EKVX; first compound 0.04 µM): 0.88 | relative viability (EKVX; first compound 0.1265 µM): 0.931 | relative viability (EKVX; first compound 0.4 µM): 0.866 | relative viability (EKVX; first compound 1.265 µM): 0.657 | relative viability (SW 1573; first compound 0.04 µM): 0.527 | relative viability (SW 1573; first compound 0.1265 µM): 0.528 | relative viability (SW 1573; first compound 0.4 µM): 0.427 | relative viability (SW 1573; first compound 1.265 µM): 0.341
